Results taken from BindingDB's records for doi:10.1021/acs.jmedchem.1c01655 (University of California San Diego, 2022).

Biological target: T1, Carboxy-terminal domain RNA polymerase II polypeptide A small phosphatase 1 (Homo sapiens, UniProt Q9GZU7)
T1 sequence (Q9GZU7 whole entry): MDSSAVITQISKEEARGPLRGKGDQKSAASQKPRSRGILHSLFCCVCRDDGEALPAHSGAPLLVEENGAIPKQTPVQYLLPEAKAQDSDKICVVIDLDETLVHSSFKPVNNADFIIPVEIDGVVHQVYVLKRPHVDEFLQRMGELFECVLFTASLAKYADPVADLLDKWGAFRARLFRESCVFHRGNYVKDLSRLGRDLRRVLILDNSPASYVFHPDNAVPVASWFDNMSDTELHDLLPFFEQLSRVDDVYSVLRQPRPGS
Assay: Inhibition of wild type human SCP1 using pNPP as substrate incubated for 0.5 to 18 hrs followed by substrate addition by absorbance based analysis

IC50: 220 µM
Structure (SMILES): O=C(C1=CC2=C(CCC2)S1(=O)=O)N1CCN(S(=O)(=O)c2ccc(F)cc2)CC1
